# “Also recorded” adds a separate entry of the source.
# Test system: chloroquine/mefloquine-resistant Dd2 strain of Plasmodium falciparum
# Format: cell-based
# Settings: Dd2 strain of P. falciparum
row,Compound,antiplasmodial activity (in words)
1,"CC1=CCCC(C)(CC(=O)C[C@]2(C)CCc3cc(O)cc(C)c3O2)OC1 (single isomer, unassigned) [Compound 6, 1-[(S or R)-2,6-dimethyl-2,3,4,7-tetrahydrooxepin-2-yl]-3-[(S)-6-hydroxy-2,8-dimethylchroman-2-yl]propan-2-one]",weak antiplasmodial activity
2,"CC1=CCCC(C)(CC(=O)C[C@]2(C)CCc3cc(O)cc(C)c3O2)OC1 (single isomer, unassigned) [Compound 7, 1-[(R or S)-2,6-dimethyl-2,3,4,7-tetrahydrooxepin-2-yl]-3-[(S)-6-hydroxy-2,8-dimethylchroman-2-yl]propan-2-one]",weak antiplasmodial activity
3,"C/C(=C\CC/C(C)=C/C(=O)C[C@]1(C)CCc2cc(O)cc(C)c2O1)CO [Compound 1, (3E,7E)-9-hydroxy-1-[(S)-6-hydroxy-2,8-dimethylchroman-2-yl]-4,8-dimethylnona-3,7-dien-2-one]",inactive
4,"C/C(=C/CC/C(C)=C/C(=O)C[C@]1(C)CCc2cc(O)cc(C)c2O1)CO [Compound 2, (3E,7Z)-9-hydroxy-1-[(S)-6-hydroxy-2,8-dimethylchroman-2-yl]-4,8-dimethylnona-3,7-dien-2-one]",weak antiplasmodial activity; also recorded: most potent biological activity among these compounds
5,"COc1cc(C)c2c(c1)CC[C@@](C)(CC(=O)/C=C(\C)CC/C=C(\C)CO)O2 [Compound 5, (3E,7E)-9-hydroxy-1-[(S)-6-methoxy-2,8-dimethylchroman-2-yl]-4,8-dimethylnona-3,7-dien-2-one]",weak antiplasmodial activity; also recorded: moderately active

# Same assay, conditions: read-out: IC50 against P. falciparum Dd2; chloroquine-resistant Dd2 strain; 72-hour treatment
row,Compound,IC50 [µM]
1,"(R)-2-[(3E,7E)-9-hydroxy-4,8-dimethylnona-3,7-dien-1-yl]-2,8-dimethyl-2H-chromen-6-ol [Compound 9]",> 117

# From article PMC5866173 (Journal of natural products, 2017)
